Reference: ChEMBL document CHEMBL5385884, “Expanding role of CXCR2 and therapeutic potential of CXCR2 antagonists in inflammatory diseases and cancers” (Eur J Med Chem, 2023)

How the values were obtained:
[1] = molecular target: T1, C-X-C chemokine receptor type 2 (Homo sapiens, UniProt P25025); experiment: Antagonist activity at CXCR2 (unknown origin); type: functional
T1 sequence (P25025 whole entry): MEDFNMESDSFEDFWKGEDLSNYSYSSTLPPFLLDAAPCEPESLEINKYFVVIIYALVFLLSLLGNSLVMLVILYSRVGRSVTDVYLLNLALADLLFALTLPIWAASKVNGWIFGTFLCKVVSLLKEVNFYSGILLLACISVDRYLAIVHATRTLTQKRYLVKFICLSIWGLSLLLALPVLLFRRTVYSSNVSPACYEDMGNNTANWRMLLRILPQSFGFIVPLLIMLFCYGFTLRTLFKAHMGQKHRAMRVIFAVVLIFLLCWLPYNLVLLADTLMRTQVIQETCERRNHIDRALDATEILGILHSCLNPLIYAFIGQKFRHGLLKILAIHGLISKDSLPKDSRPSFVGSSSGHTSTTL

[2] = molecular target: C-X-C chemokine receptor type 4 (Homo sapiens, UniProt P61073); experiment: Antagonist activity at SDF-1-activated CXCR4 (unknown origin) overexpressed in human U2OS cells preincubated for 30 mins followed by SDF-1 addition measured after 5 hrs by beta-lactamase reporter gene assay; type: functional, cell-based
[3] = molecular target: T1, C-X-C chemokine receptor type 2; experiment: Antagonist activity at CXCL8-activated CXCR2 (unknown origin) overexpressed in human U2OS cells preincubated for 30 mins followed by CXCL8 addition measured after 5 hrs by beta-lactamase reporter gene assay; type: functional, cell-based
[4] = Effective half life in human; type: ADME; conditions: read-out: t1/2eff (converted)
[5] = Intrinsic clearance in human hepatocytes measured per million cells at 100 uM incubated upto 90 mins by LCMS/MS analysis; type: ADME, cell-based, Hepatocyte; conditions: read-out: CLH

C-X-C chemokine receptor type 4, sequence (P61073 whole entry): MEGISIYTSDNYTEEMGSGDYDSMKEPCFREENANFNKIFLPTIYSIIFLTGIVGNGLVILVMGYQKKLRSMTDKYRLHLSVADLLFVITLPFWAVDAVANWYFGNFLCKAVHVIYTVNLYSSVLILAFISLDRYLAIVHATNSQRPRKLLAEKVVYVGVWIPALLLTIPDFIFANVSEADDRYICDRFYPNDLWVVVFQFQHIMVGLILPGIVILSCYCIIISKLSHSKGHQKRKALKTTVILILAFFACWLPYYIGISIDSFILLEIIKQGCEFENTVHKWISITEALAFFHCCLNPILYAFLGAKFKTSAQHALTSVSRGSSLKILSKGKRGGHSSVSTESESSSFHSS

Row | IC50 [1] [nM] | SMILES | IC50 [2] [nM] | IC50 [3] [nM] | further results
1 | 0.7 | C[C@@H](C(=O)NS(C)(=O)=O)c1ccc(OS(=O)(=O)C(F)(F)F)cc1 [LADARIXIN] |  |  | 
2 | 22 | O=C(Nc1ccc(F)cc1)c1cnc(SCc2cc(OC(F)(F)F)ccc2B(O)O)nc1 [SX-682] |  |  | 

More lines, now with the values behind:

Row | SMILES | IC50 [1] [nM] | IC50 [2] [nM] | IC50 [3] [nM] | further results
3 | CC(=O)c1c(C)oc2c1cc(NS(=O)(=O)c1ccc(C(C)(C)C)cc1)c1ccccc12 |  | > 50000 |  | 
4 | COc1cc(NS(=O)(=O)c2ccc(C)cc2)c2ncccc2c1 |  |  | 400 | 
5 | COc1cc(NS(=O)(=O)c2cccc3nsnc23)c2ncccc2c1 |  | 590 | 360 | 
6 | C[C@@H](Oc1cc(NS(=O)(=O)N2CCC2)nc(SCc2cccc(F)c2F)n1)[C@@H](O)CO |  |  |  | half-life [4]: 4 h; hepatocyte CLint at 100 µM [5]: < 5 µL/min/1e6 cells
